Reference: paper PMC4229301, “A Polymeric Prodrug of 5-Fluorouracil-1-Acetic Acid Using a Multi-Hydroxyl Polyethylene Glycol Derivative as the Drug Carrier” (PLoS ONE, 2014)

How the values were obtained:
[1] = tested on: Kunming mice; assay: Safety evaluation: myelosuppression (white blood cell and blood platelet counts) after intravenous administration; settings: i.v., same doses, n=12
Method: All animals were fed on a light and dark cycle and allowed free access to standard chow and water. Temperature and relative humidity were kept at 25°C and 50%, respectively. After experiment, mice were sacrificed by neck dislocation, and all efforts were made to minimize suffering. […] The control group was given physiological saline (0.009 g/ml). Zero point one mL blood samples were collected at prearranged time intervals (one day before injection and 1, 4, 7, and 10 days post injection).

[2] = In vivo distribution in H22 tumor-bearing mice; parameters: species or system Kunming mice
Method: The tumor-bearing animal model was established by subcutaneous injection of H22 cells (1×10^7 cells/ml, in 0.2 ml saline) into the right axillary region of Kunming mice. The sizes of tumors were monitored 7 days after inoculation and the tumor volumes were calculated as described in the “Antitumor activity in tumor-bearing mice” section. The mice with tumor volumes between 0.35 cm^3 and 0.65 cm^3 were randomized into two groups (n = 30). […] The mice were exsanguinated and sacrificed by neck dislocation at predetermined time points. Tissues including heart, liver, spleen, lung, kidney, brain and tumor were collected, washed with physiological saline, weighed and homogenized with two fold concentrated physiological saline. The samples of the test group were treated as hydrolyzed samples as described in the section “In vitro drug release”, whereas those of the control group were treated as unhydrolyzed samples. All data are presented as the concentration of 5-FA.
(§1) The data of pharmacokinetics and in vivo distribution study were processed using the Drug and Statistics Software 2.0 (DAS 2.0, Shanghai, China). The statistical analysis of the samples was performed by using one-way ANOVA and Student's t-test. p-values <0.05 were considered as statistically different.

[3] = Pharmacokinetics study after i.v. injection in rats; type: in vivo, Wistar rats
Method: Male Wistar rats were purchased from The laboratory Animal Center of Sichuan University. 12 Wistar rats (body weight: 200 g±20 g) were divided into two groups randomly (n = 6). […] The blood samples were collected into heparinized centrifuge tubes at predetermined intervals (see Table S2 in file SI) by retro-orbital puncture, and the plasma was separated by centrifugation. Each plasma sample of the test groups was divided into two portions. They were treated as hydrolyzed and unhydrolyzed as described in the “In vitro drug release” section. The two portions of the samples were analyzed by HPLC to determine the plasma concentrations of released 5-FA and total 5-FA of the conjugate whereas the plasma samples of the control group were treated as unhydrolyzed samples.
as §1

[4] = male, Wistar, rat, plasma, iv, 20 mg/kg
[5] = rats, i.v., 20 mg/kg 5-FA or 189 mg/kg 5-FA-PAE

SMILES: O=c1[nH]cc(F)c(=O)[nH]1 [5-Fu, 5-fluorouracil]
- number of blood platelets ([1]; 1 day after injection): 792 ± 122 ×10^9/L
- number of blood platelets ([1]; 4 days after injection): 819 ± 211 ×10^9/L
- number of white blood cells ([1]; 4 days after injection): 6.84±5.76 ×10^9/L
- number of blood platelets ([1]; 7 days after injection): 858 ± 254 ×10^9/L
- number of white blood cells ([1]; 7 days after injection): 7.34±2.82 ×10^9/L
- number of blood platelets ([1]; 10 days after injection): 863 ± 382 ×10^9/L
- number of white blood cells ([1]; 10 days after injection): 8.59±2.39 ×10^9/L

SMILES: O=C(O)Cn1cc(F)c(=O)[nH]c1=O [5-FA, 5-fluorouracil-1-acetic acid]
- concentration in tumor over time ([2]; H22 tumor-bearing mice, i.v. 20 mg/kg 5-FA): undetectable after 6 h
- concentration at 15 min ([2]; Kunming, mouse, tumor, iv, 20 mg/kg): 4860 ± 1620 ng/g
- Kp at 4 h ([2]; Kunming, mouse, tumor/plasma, iv, 20 mg/kg, H22 tumor-bearing mice, i.v., 4 h after injection, read-out: ratio of tumor/plasma concentration): 1.99
- number of blood platelets ([1]; 1 day after injection): 945 ± 139 ×10^9/L
- number of blood platelets ([1]; 4 days after injection): 781 ± 250 ×10^9/L
- number of white blood cells ([1]; 4 days after injection): 10.32±5.71 ×10^9/L
- number of blood platelets ([1]; 7 days after injection): 822 ± 198 ×10^9/L
- number of white blood cells ([1]; 7 days after injection): 10.24±4.50 ×10^9/L
- number of blood platelets ([1]; 10 days after injection): 860 ± 188 ×10^9/L
- number of white blood cells ([1]; 10 days after injection): 11.55±3.62 ×10^9/L
- AUC(0-inf) [3, 4]: 21600 ± 4470 ng·h/mL
- AUC(0-t) [3, 4]: 21400 ± 4360 ng·h/mL
- Cmax [3, 4]: 74.9 ± 10.2 µg/mL
- Tmax [3, 4]: 1 min
- MRT last ([3]; male, Wistar, rat, plasma, iv, 20 mg/kg, read-out: MRT 0-t): 40.7 ± 8.52 min
- MRT inf ([3]; male, Wistar, rat, plasma, iv, 20 mg/kg, read-out: MRT 0-∞): 47.7 ± 14.4 min
- Vd ([3]; male, Wistar, rat, plasma, iv, 20 mg/kg, read-out: V (apparent volume of distribution)): 2.11 ± 0.62 L/kg
- half-life ([3]; male, Wistar, rat, plasma, iv, 20 mg/kg, read-out: t1/2 (elimination half life) (converted)): 92.3 ± 25.1 min
- concentration at 1 min ([3]; male, Wistar, rat, plasma, iv, rats, i.v. 20 mg/kg 5-FA, 1 min): 79.9 ± 10.2 µg/mL
- concentration at 5 min ([3]; male, Wistar, rat, plasma, iv, rats, i.v. 20 mg/kg 5-FA, 5 min): 79.9 ± 2.86 µg/mL
- concentration at 10 min ([3]; male, Wistar, rat, plasma, iv, rats, i.v. 20 mg/kg 5-FA, 10 min): 79.9 ± 3.52 µg/mL
- concentration at 15 min ([3]; male, Wistar, rat, plasma, iv, rats, i.v. 20 mg/kg 5-FA, 15 min): 79.9 ± 5.07 µg/mL
- concentration at 30 min ([3]; male, Wistar, rat, plasma, iv, rats, i.v. 20 mg/kg 5-FA, 30 min): 79.9 ± 2.8 µg/mL
- concentration at 1 h ([3]; male, Wistar, rat, plasma, iv, rats, i.v. 20 mg/kg 5-FA, 1 h): 79.9 ± 0.986 µg/mL
- concentration at 2 h ([3]; male, Wistar, rat, plasma, iv, rats, i.v. 20 mg/kg 5-FA, 2 h): 79.9 ± 0.814 µg/mL
- time of complete removal from the blood circulation after administration ([3]; rats, i.v.): 6∼8 h
- Plasma concentration, 5-FA ([3]; rats, i.v. 20 mg/kg 5-FA, 10 h): -
- Plasma concentration, 5-FA ([3]; rats, i.v. 20 mg/kg 5-FA, 24 h): -
- Cl (clearance) [3, 5]: 0.967 ± 0.259 mL/g/h
- VRT 0-t [3, 5]: 1.519±0.326 h^2
- VRT 0-∞ [3, 5]: 2.703±1.558 h^2
